Results: US11116708B2, “Personal care compositions including naringin:zinc complexes and methods for the same” (Colgate-Palmolive Company, priority 2017, dated 2021)

Tests used:
[1] = system: IL-1a; assay: IL-1a assay using HaCaT cells stressed with 0.01% SDS (ELISA of cell supernatants); assay type: cell-based; details: 0.001% sample, 24 h pretreatment, 0.01% SDS stress 15 min, sample added again, normalized by cell viability
Protocol: The anti-inflammatory properties of the naringin:zinc complex was evaluated by conducting an IL-la assay using HaCaT cells. To evaluate the anti-inflammatory properties, HaCaT cells were grown into 80% confluency and pretreated for 24 hours with 1 mL of each of the following samples: (1) a culture media (control); (2) 0.001% naringin:zinc complex; and (3) 0.001% naringin alone.
After pretreating the HaCaT cells, the cells were stressed with 0.01% SDS for 15 minutes before adding another 1 mL of each of the samples (1)-(3). Each of the HaCaT cells were used to prepare cell supernatants, which were used for IL-la assays with IL-la ELISA kits.

[2] = system: human epidermal keratinocyte cells; assay: Scratch assay (cell migration / gap closure) using human epidermal keratinocyte cells; assay type: cell-based; details: 0.001% sample
Protocol: The cell regeneration function or properties of the naringin:zinc complex were evaluated via a scratch assay using human epidermal keratinocyte cells obtained from Thermal Fisher Scientific of Gaithersburg, Md. Particularly, monolayers of keratinocyte cells were gown to full confluency in separate wells, and each well was scratched with a 1000 μl tip to create a cell-free gap. Each of the wells with the cell-free gap was then washed with 1 mL of PBS twice to remove any dead floating cells. […] Distance measurements of the gap were taken every 24 hours until the gaps fully closed.
It should be appreciated that a relatively higher value of the percentage of gap closure indicates a relatively greater repair or regeneration function.

## C[C@@H]1O[C@@H](O[C@H]2[C@H](Oc3cc(O)c4c(c3)O[C@H](c3ccc(O)cc3)CC4=O)O[C@H](CO)[C@@H](O)[C@@H]2O)[C@H](O)[C@H](O)[C@H]1O [Naringin, naringin]
[1]
  IL-1a level: 6.6 pg/mL
[2]
  Cell Migration of Keratinocytes (% Active); percentage of gap closure versus the starting gap distance: 58%
